Reference: PubChem BioAssay AID330 (DTP/NCI, 2004)
Several values for one entry are separate records, joined by “and”; a condition that tells them apart may be missing. Equal entries are not always repeated. Inconclusive results and toxic doses are left out.

System: P388 leukemia ip, CD2F1 mice, survival T/C
Experiment: NCI In Vivo Anticancer Drug Screen. Data for tumor model P388 Leukemia (intraperitoneal) in CD2F1 (CDF1) mice
Conditions: endpoint: median survival time, higher = longer survival
How it was run: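 Mice carrying the transplanted tumor received test compound or vehicle. Survival was recorded in each group, and the value is the treated-group measurement divided by that of the vehicle-treated control group.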

[1] = dose: 50.0 mg/kg/injection, schedule: Q01DX005 (ip), vehicle: saline with Tween-80
[2] = dose: 100.0 mg/kg/injection, schedule: Q01DX005 (ip), vehicle: saline with Tween-80
[3] = dose: 200.0 mg/kg/injection, schedule: Q01DX005 (ip), vehicle: saline with Tween-80
[4] = dose: 50.0 mg/kg/injection, schedule: Q01DX009 (ip), vehicle: saline
[5] = dose: 100.0 mg/kg/injection, schedule: Q01DX009 (ip), vehicle: saline
[6] = dose: 200.0 mg/kg/injection, schedule: Q01DX009 (ip), vehicle: saline
[7] = dose: 50.0 mg/kg/injection, schedule: Q01DX009 (ip), vehicle: Klucel (hydroxypropylcellulose) (HPC)
[8] = dose: 50.0 mg/kg/injection, schedule: Q01DX005 (ip), vehicle: Klucel (hydroxypropylcellulose) (HPC)
[9] = dose: 100.0 mg/kg/injection, schedule: Q01DX005 (ip), vehicle: Klucel (hydroxypropylcellulose) (HPC)
[10] = dose: 200.0 mg/kg/injection, schedule: Q01DX005 (ip), vehicle: Klucel (hydroxypropylcellulose) (HPC)
[11] = dose: 25.0 mg/kg/injection, schedule: Q01DX005 (ip), vehicle: saline
[12] = dose: 50.0 mg/kg/injection, schedule: Q01DX005 (ip), vehicle: saline
[13] = dose: 100.0 mg/kg/injection, schedule: Q01DX005 (ip), vehicle: saline
[14] = dose: 100.0 mg/kg/injection, schedule: Q01DX009 (ip), vehicle: Klucel (hydroxypropylcellulose) (HPC)
[15] = dose: 200.0 mg/kg/injection, schedule: Q01DX009 (ip), vehicle: Klucel (hydroxypropylcellulose) (HPC)
[16] = dose: 50.0 mg/kg/injection, schedule: Q01DX009 (ip), vehicle: saline with Tween-80
[17] = dose: 100.0 mg/kg/injection, schedule: Q01DX009 (ip), vehicle: saline with Tween-80
[18] = dose: 200.0 mg/kg/injection, schedule: Q01DX009 (ip), vehicle: saline with Tween-80

Structure (SMILES): CN(C)C1=NS(=O)(=O)c2ccccc21
- T/C [1]: 100 % of control
- T/C [2]: 106 % of control
- T/C [3]: 93 % of control

Structure (SMILES): CC(O)CN1C=NC(C)C1 (configuration not stated)
- T/C [4]: 95 % of control
- T/C [5]: 100 % of control
- T/C [6]: 103 % of control

Structure (SMILES): O=NN(CCF)C(=O)NCCF
- T/C (dose: 0.11 mg/kg/injection, schedule: Q01DX009 (ip), vehicle: saline): 109 % of control
- T/C (dose: 0.16 mg/kg/injection, schedule: Q01DX009 (ip), vehicle: saline): 109 % of control
- T/C (dose: 0.25 mg/kg/injection, schedule: Q01DX009 (ip), vehicle: saline): 122 % of control
- T/C (dose: 2.5 mg/kg/injection, schedule: Q01DX009 (ip), vehicle: saline): 236 % of control

Structure (SMILES): COc1ccc(C)cc1NC(=O)/N=C1/NC(=O)CS1
- T/C [4]: 91 % of control
- T/C [5]: 97 % of control
- T/C [6]: 91 % of control

Structure (SMILES): COc1ccccc1C1OC2=C(Nc3ccccc3N2)C1=O (configuration not stated)
- T/C (dose: 30.0 mg/kg/injection, schedule: Q01DX005 (ip), vehicle: Klucel (hydroxypropylcellulose) (HPC)): 101 % of control
- T/C (dose: 60.0 mg/kg/injection, schedule: Q01DX005 (ip), vehicle: Klucel (hydroxypropylcellulose) (HPC)): 97 % of control and 98 % of control
- T/C (dose: 120.0 mg/kg/injection, schedule: Q01DX005 (ip), vehicle: Klucel (hydroxypropylcellulose) (HPC)): 91 % of control
- T/C (dose: 240.0 mg/kg/injection, schedule: Q01DX005 (ip), vehicle: Klucel (hydroxypropylcellulose) (HPC)): 92 % of control

Structure (SMILES): CN1CCc2c(c3ccccc3c3ccccc23)C1
- T/C (dose: 0.09 mg/kg/injection, schedule: Q01DX009 (ip), vehicle: Klucel (hydroxypropylcellulose) (HPC)): 99 % of control
- T/C (dose: 0.19 mg/kg/injection, schedule: Q01DX009 (ip), vehicle: Klucel (hydroxypropylcellulose) (HPC)): 107 % of control
- T/C (dose: 0.39 mg/kg/injection, schedule: Q01DX009 (ip), vehicle: Klucel (hydroxypropylcellulose) (HPC)): 104 % of control
- T/C (dose: 0.78 mg/kg/injection, schedule: Q01DX009 (ip), vehicle: Klucel (hydroxypropylcellulose) (HPC)): 102 % of control
- T/C (dose: 1.56 mg/kg/injection, schedule: Q01DX009 (ip), vehicle: Klucel (hydroxypropylcellulose) (HPC)): 104 % of control and 91 % of control
- T/C (dose: 3.12 mg/kg/injection, schedule: Q01DX009 (ip), vehicle: Klucel (hydroxypropylcellulose) (HPC)): 94 % of control
- T/C (dose: 6.25 mg/kg/injection, schedule: Q01DX009 (ip), vehicle: Klucel (hydroxypropylcellulose) (HPC)): 86 % of control and 96 % of control
- T/C (dose: 12.5 mg/kg/injection, schedule: Q01DX009 (ip), vehicle: Klucel (hydroxypropylcellulose) (HPC)): 104 % of control
- T/C (dose: 25.0 mg/kg/injection, schedule: Q01DX009 (ip), vehicle: Klucel (hydroxypropylcellulose) (HPC)): 113 % of control and 92 % of control
- T/C [7]: 105 % of control

Structure (SMILES): Oc1ccc(O)c(/C=N/NC(=S)NC2CC3CC2C2C=CCC32)c1 (configuration not stated)
- T/C (dose: 12.5 mg/kg/injection, schedule: Q01DX009 (ip), vehicle: olive oil, sesame oil, peanut oil): 90 % of control
- T/C (dose: 25.0 mg/kg/injection, schedule: Q01DX009 (ip), vehicle: olive oil, sesame oil, peanut oil): 102 % of control
- T/C (dose: 50.0 mg/kg/injection, schedule: Q01DX009 (ip), vehicle: olive oil, sesame oil, peanut oil): 102 % of control
- T/C (dose: 100.0 mg/kg/injection, schedule: Q01DX009 (ip), vehicle: olive oil, sesame oil, peanut oil): 98 % of control
- T/C (dose: 200.0 mg/kg/injection, schedule: Q01DX009 (ip), vehicle: olive oil, sesame oil, peanut oil): 105 % of control

Structure (SMILES): CC1[C@@]2(CCC(C)(C)O2)O[C@@H]2C=C3C4CCC5Cc6nc7c(nc6C[C@@]5(C)C4C[C@H](O)[C@@]3(C)[C@]12O)CC1CCC2C3=C[C@H]4O[C@@]5(O[C@@](C)(CO)C[C@@H]5O)C(C)[C@@]4(O)[C@]3(C)[C@@H](O)CC2[C@]1(C)C7 (some centres not stated)
- T/C (dose: 12.5 micrograms/kg/injection, schedule: Q01DX009 (ip), vehicle: saline + alcohol): 109 % of control
- T/C (dose: 25.0 micrograms/kg/injection, schedule: Q01DX009 (ip), vehicle: saline + alcohol): 98 % of control
- T/C (dose: 50.0 micrograms/kg/injection, schedule: Q01DX009 (ip), vehicle: saline + alcohol): 107 % of control
- T/C (dose: 100.0 micrograms/kg/injection, schedule: Q01DX009 (ip), vehicle: saline + alcohol): 107 % of control

Structure (SMILES): CCC(C)NS(=O)(=O)c1ccccc1C(=O)OC (configuration not stated)
- T/C [8]: 99 % of control
- T/C [9]: 99 % of control
- T/C [10]: 97 % of control

Structure (SMILES): CC(C)([CH2][Sn]([CH3])([Cl])[Cl])c1ccccc1
- T/C (dose: 0.79 mg/kg/injection, schedule: Q04DX003 (ip), vehicle: saline with Tween-80): 99 % of control and 101 % of control
- T/C (dose: 1.56 mg/kg/injection, schedule: Q04DX003 (ip), vehicle: saline with Tween-80): 99 % of control and 116 % of control and 98 % of control
- T/C (dose: 3.12 mg/kg/injection, schedule: Q04DX003 (ip), vehicle: saline with Tween-80): 102 % of control and 111 % of control and 95 % of control
- T/C (dose: 6.25 mg/kg/injection, schedule: Q04DX003 (ip), vehicle: saline with Tween-80): 104 % of control and 97 % of control and 98 % of control
- T/C (dose: 6.25 mg/kg/injection, schedule: Q04DX003 (ip), vehicle: saline): 106 % of control

Structure (SMILES): CC[N+](C)(CC)C1C(S(=O)(=O)c2ccccc2)CC1(C)C (configuration not stated)
- T/C [11]: 108 % of control
- T/C [12]: 98 % of control
- T/C [13]: 99 % of control

Structure (SMILES): CC(=O)NCCSC(=O)C(O)(c1ccccc1)c1ccccc1
- T/C [7]: 100 % of control
- T/C [14]: 98 % of control
- T/C [15]: 99 % of control

Structure (SMILES): CCCN(CCC)C(=O)C(c1ccccc1)C1(O)CCCCC1 (configuration not stated)
- T/C [8]: 100 % of control
- T/C [9]: 100 % of control
- T/C [10]: 97 % of control

Structure (SMILES): O=S(=O)(O)c1c(O)ccc2nc3ccccc3nc12
- T/C (dose: 12.5 mg/kg/injection, schedule: Q01DX009 (ip), vehicle: saline): 99 % of control and 97 % of control
- T/C (dose: 25.0 mg/kg/injection, schedule: Q01DX009 (ip), vehicle: saline): 98 % of control and 96 % of control
- T/C [4]: 103 % of control and 104 % of control and 106 % of control
- T/C [5]: 98 % of control
- T/C [6]: 96 % of control

Structure (SMILES): CCCCCC(CC(=O)O)C(N)C(=O)O (configuration not stated)
- T/C [7]: 104 % of control
- T/C [14]: 103 % of control
- T/C [15]: 99 % of control

Structure (SMILES): S=c1n(-c2ccc(Cl)cc2)c2nc3ccccc3nc(/c2=N\Nc2cc(Cl)ccc2Cl)n1-c1ccccn1
- T/C [1]: 103 % of control
- T/C [2]: 100 % of control

Structure (SMILES): CCCCCCCCSC(=O)n1cc(F)c(=O)[nH]c1=O
- T/C (dose: 15.0 mg/kg/injection, schedule: Q01DX005 (ip), vehicle: saline with Tween-80): 103 % of control
- T/C (dose: 30.0 mg/kg/injection, schedule: Q01DX005 (ip), vehicle: saline with Tween-80): 120 % of control
- T/C (dose: 60.0 mg/kg/injection, schedule: Q01DX005 (ip), vehicle: saline with Tween-80): 120 % of control

Structure (SMILES): Cn1c(=O)oc2cc(N)c(Cl)cc21
- T/C (dose: 12.5 mg/kg/injection, schedule: Q01DX005 (ip), vehicle: Klucel (hydroxypropylcellulose) (HPC)): 88 % of control
- T/C (dose: 25.0 mg/kg/injection, schedule: Q01DX005 (ip), vehicle: Klucel (hydroxypropylcellulose) (HPC)): 94 % of control
- T/C [8]: 100 % of control and 87 % of control

Structure (SMILES): Cc1ccc2c(C(=O)O)cccc2n1
- T/C (dose: 100.0 mg/kg/injection, schedule: Q04DX002 (ip), vehicle: saline with Tween-80): 97 % of control
- T/C (dose: 200.0 mg/kg/injection, schedule: Q04DX002 (ip), vehicle: saline with Tween-80): 98 % of control
- T/C (dose: 400.0 mg/kg/injection, schedule: Q04DX002 (ip), vehicle: saline with Tween-80): 95 % of control

Structure (SMILES): COc1ccc2c(c1)C(Br)CCCC2=O (configuration not stated)
- T/C (dose: 400.0 mg/kg/injection, schedule: Q01DX009 (ip), vehicle: distilled water + alcohol): 106 % of control

Structure (SMILES): O=C(Nc1ccc(Cl)c(Cl)c1)NC1CC1
- T/C [16]: 119 % of control
- T/C [17]: 102 % of control
- T/C [18]: 93 % of control

Structure (SMILES): Cl/N=C1/C=CC(Cl)=C/C1=N/Cl
- T/C [11]: 100 % of control and 101 % of control
- T/C [12]: 101 % of control and 102 % of control and 115 % of control
- T/C [13]: 105 % of control and 106 % of control and 120 % of control
- T/C (dose: 200.0 mg/kg/injection, schedule: Q01DX005 (ip), vehicle: saline): 98 % of control and 101 % of control and 110 % of control

Structure (SMILES): O=C1c2ccccc2C(=O)C2C(=O)c3ccccc3C(=O)C12 (configuration not stated)
- T/C [1]: 95 % of control
- T/C [2]: 95 % of control
- T/C [3]: 103 % of control

Structure (SMILES): O=C(/C=C/c1cccc([N+](=O)[O-])c1)c1ccccc1
- T/C [16]: 99 % of control
- T/C [17]: 92 % of control
- T/C [18]: 92 % of control
- T/C (dose: 400.0 mg/kg/injection, schedule: Q01DX009 (ip), vehicle: saline with Tween-80): 100 % of control
